Assay type in all cases: cell-based
The test system of assay [1] is murine spleen lymphocytes. As to the kind of experiment: Cytokine stimulation of murine spleen lymphocytes, ELISA. The conditions noted are these: Lymphocyte, mouse immune cells (spleen lymphocytes), 24 hrs, ELISA. The protocol:
The stimulating effect of a series of GY compounds or drugs on murine spleen lymphocytes was detected by ELISA.
6-week-old Balb/c mice were sacrificed by cervical dislocation, spleens were taken under aseptic conditions. A 1 mL sterile syringe and a 200 mesh cell strainer were adopted to quickly grind and disperse the spleen into individual cells in 4 mL of a murine lymphocyte separation solution (Dakko's, 7211011). A resulting cell homogenate was transferred to a 15 mL centrifuge tube, then 1 mL of a RPMI 1640 medium (Hyclone, SH30809.01) was slowly added. Spleen lymphocytes were separated by a density gradient centrifugation method (800×g, 30 min), washed, red blood cells therein were lysed, such that a dispersed spleen lymphocyte suspension was obtained. Cells were counted by a hemocytometer, to calculate the cell concentration. A RPMI 1640 complete medium was adopted to adjust the cell suspension to a concentration of 1×10^6/ml/well, and the cells were then plated on a 24-well cell culture plate (Corning, 3524).
Murine spleen lymphocytes were stimulated according to the gradient concentrations of the series of GY compounds or drugs, and incubated in a 37° C., 5% carbon dioxide incubator for 24 hrs.
• (1) Coating: a Capture antibody (primary antibody, purchased from Invitrogen) was diluted with a 1×Coating Buffer (coating buffer, purchased from Invitrogen) to a recommended concentration, and 100 μL of a resulting diluted solution was added to each well of a 96-well microtiter plate, the plate was sealed with a sealing film at 4° C. overnight. • (2) Washing: a liquid in each well was discarded, then 300 μL of a PBST working solution was added to each well and kept for 1 min, thereafter, the liquid therein was discarded. The washing process was repeated 3 times. • (3) Blocking: 200 μL of a blocking solution was added to each well. The plate was sealed with a sealing film, and placed on a shaker and incubated at room temperature for 1 hr, then washed and patted to be dry. • (4) Sample incubation: a sample was collected and centrifuged to collect a supernatant. Standards, samples, negative controls, and blank controls were provided in the 96-well microtiter plate, and each concentration or sample were provided with 2 replicates. 100 μL of a standard or sample was added to each well, thereafter, the plate was sealed with a sealing film, incubated on a shaker at room temperature for 1 hr or overnight at 4° C., then washed and pated to be dry. • (5) Secondary antibody incubation: the detection antibody (secondary antibody, purchased from Invitrogen) was diluted to a recommended concentration with a dilution buffer, 100 μL of a secondary antibody was added to each well. After being sealed with a sealing film, the plate was incubated on a shaker at room temperature for 1 hr, then washed and patted to be dry. • (6) Avidin-HRP incubation: Avidin-HRP (horseradish peroxidase marker, purchased from Invitrogen) was diluted to the recommended concentration with a dilution buffer, 100 μL of Avidin-HRP was added to each well. After being sealed with a sealing film, the plate was placed on a shaker and incubated at room temperature for 30 mins, washed 5-7 times by the process of step 2), and patted to be dry. • (7) TMB color development: 100 μL of a TMB color development solution (purchased from Invitrogen) was added to each well, for carrying out reaction for 15 mins at room temperature in the dark. • (8) Stopping reaction: 50 μL of 1M H2SO4 solution was added to each well. • (9) Reading an absorbance value by a microplate reader: the OD value at 450 nm wavelength was read. A standard curve and a parameter nonlinear regression equation were drawn, and a sample concentration was calculated according to the obtained formula.

For assay [2], the system named is human leukemia K562 cells. As to the kind of experiment: CCK8 growth inhibition, K562. The conditions noted are these: CCK8 method, read-out: IC50 of inhibitory activity on tumor cell growth, K562.
The test system of assay [3] is human leukemia HL-60 cells. As to the kind of experiment: CCK8 growth inhibition, HL60. Particulars: Homo sapiens, HL-60, CCK8 method; read-out: IC50 of inhibitory activity on tumor cell growth, HL60. For orientation: Formazan colour is commonly taken as a measure of viable cells.
The subject of assay [4] is Murine breast cancer 4T1 cells. As to the kind of experiment: CCK8 growth inhibition, 4T1. The conditions noted are these: Mus musculus, CCK8 method, 24 hrs (or 36, 72 hrs), read-out: IC50 of inhibitory activity on tumor cell growth, 4T1. Here is the method:
Murine breast cancer 4T1 cells (Kailian Biotech, KG338) in a logarithmic growth phase were selected and washed with PBS, digested with 0.25% trypsin (including EDTA), stopped digestion with a DMEM complete medium, then centrifuged, and resuspended to form a suspension of 4T1 single cells. Cells were counted using a hemocytometer and a cell concentration was calculated. A DMEM complete medium was used to adjust the cell suspension to a target concentration, and thereafter, the cells were plated on a 96-well cell culture plate according to 4×10^3/100 μL per well. After adherering to the wall, the 4T1 cells were stimulated according to the designed concentration gradients of the series of GY compounds or drugs, with each concentration being provided with 3 replicate holes. The 96-well cell culture plate with 4T1 cells seeded and dosing was placed in the cell incubator, and incubated at 37° C., 5% carbon dioxide for 24 hrs (or 36, 72 hrs). After the incubation time was over, 10 μL of CCK8 reagent was added to each well and incubated for 1-2 hrs at 37° C. A full-wavelength microplate reader was adopted to test an OD value at 450 nm wavelength.
CCK8 calculation formula is as follows: • Cell survival rate (100%)=[…]/(Ac−Ab)×100% • As: Absorbance of wells containing cells, CCK8 solution, and drug solution • Ac: Absorbance of wells containing cells and CCK8 solution, and no drug solution • Ab: Absorbance of wells containing CCK8 solution, no cells, and no drug solution
Cell growth inhibition rate (%)=1−((OD value of experimental group−OD value of blank group)/(OD value of control group−OD value of blank group)×100%).

The test system of assay [5] is A549. As to the kind of experiment: CCK8 growth inhibition, A549. The conditions noted are these: Homo sapiens, CCK8 method, read-out: IC50 of inhibitory activity on tumor cell growth, A549.
In assay [6] the test system is HEK293T cells. Nature of the assay: CCK8 growth inhibition, HEK-293T. Particulars: Homo sapiens, CCK8 method, read-out: IC50 of inhibitory activity on cell growth, HEK-293T.
The subject of assay [7] is human colon cancer HCT-116 cells. As to the kind of experiment: CCK8 growth inhibition, HCT-116. The conditions noted are these: CCK8 method, read-out: IC50 of inhibitory activity on tumor cell growth, HCT-116.
Assay [8] has as its system human lymphoma Daudi B cells. As to the kind of experiment: CCK8 growth inhibition, Daudi B. The conditions noted are these: Homo sapiens, Daudi, CCK8 method; read-out: IC50 of inhibitory activity on tumor cell growth, Daudi B.
Assay [9] concerns human lymphoma Raji cells. Nature of the assay: CCK8 growth inhibition, Raji. The conditions noted are these: Homo sapiens, Raji, CCK8 method; read-out: IC50 of inhibitory activity on tumor cell growth, Raji.
Assay [10] deals with black melanoma B16 cells. Nature of the assay: CCK8 growth inhibition, B16. Particulars: Mus musculus, CCK8 method, read-out: IC50 of inhibitory activity on tumor cell growth, B16.
The mark [11] stands for this setting: read-out: IFN-gamma EC50 of cytokine stimulating activity.
[12] abbreviates: read-out: IL-6 EC50 of cytokine stimulating activity.
The mark [13] stands for this setting: read-out: TNF-alpha EC50 of cytokine stimulating activity.

Each structure is given as a SMILES string. Read-outs that look alike come from different tables or passages of the source.

A word on the EC50: it is the concentration giving half of the maximal effect. The term IC50 denotes the midpoint of a concentration-inhibition curve.

On to `CCCCOc1nc(N)c2nc(O)n(Cc3cn(CCOCCOCCOCCNC(=S)Nc4cc(Nc5nccc(-c6cn(C)c7ccccc67)n5)c(OC)cc4N(C)CCN(C)C)nn3)c2n1` [GY127], for which the EC50 in assay [1] (setting [11]) amounted to 753 nM; in assay [1] (setting [12]), 83 nM; in assay [1] (setting [13]) it was 248 nM. Besides, the IC50 in assay [2] is 17.8 µM; in assay [3] it was 19.1 µM; in [4] it was 17300 nM; in assay [5], 23.2 µM; in assay [6], 26 µM; in assay [7], 20.8 µM.

As to `CCCCOc1nc(N)c2nc(O)n(Cc3cn(CCOCCOCCOCCNC(=S)N4CCCC(n5nc(-c6ccc(Oc7ccccc7)cc6)c6c(N)ncnc65)C4)nn3)c2n1` (stereo not shown) [GY112], the EC50 was found to be 8300 nM in assay [1] (setting [11]), 314 nM in assay [1] (setting [12]) and 914 nM in assay [1] (setting [13]). For the same compound, the IC50 worked out at 14.6 µM in assay [2]; 9.75 µM in [3]; 1450 nM in [4]; 16.8 µM in assay [5]; 8.73 µM in assay [8]; 10.6 µM in assay [9]. Moreover, the IC50 stood at 13.8 µM in [6], 15.7 µM in [7] and 34.1 µM in assay [10].

As to `CCCCOc1nc(N)c2nc(O)n(Cc3cn(CCCCN4CCN(CCCNC(=S)N5CCCC(n6nc(-c7ccc(Oc8ccccc8)cc7)c7c(N)ncnc76)C5)CC4)nn3)c2n1` (stereo not shown) [GY161], the EC50 was determined as 1530 nM in [1] (setting [11]), 6 nM in assay [1] (setting [12]) and 11 nM in assay [1] (setting [13]). The IC50 in [4] came to 780 nM; in assay [8] it was 11.8 µM; in [9], 16.1 µM; in assay [10] it was 11.7 µM.
